Where a name gives a salt, the structure may show the parent alone.
What was measured:
[1] = system: ID188 patient-derived PDAC 2D line (pre-FOLFIRINOX); assay: normalised area under dose-response curve (viability relative to DMSO, 7 doses up to 10 µM) (fraction (AUC)); higher = less sensitive (more viability retained); conditions: 72 h; top dose: 10 µM
Summary of the method: (§1)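 2D PDAC cells grown out from patient-derived organoids were robotically seeded in 96-well plates at 1,500–3,000 cells/well and kept overnight at 37°C in 5% CO2. Compounds from a SelleckChem library were then applied for 72 h at seven concentrations, made as a 3-fold dilution series with 10 µM as the highest. CellTiter-Glo luminescence was measured 10 min later. Viability was normalised to control wells, and the GRmetrics R package was used to derive the area under the dose-response curve.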

[2] = system: ID211 patient-derived PDAC 2D line (post-FOLFIRINOX); assay: as above; conditions: 72 h; top dose: 10 µM
Summary of the method: as §1

With `C=CCNc1ncnc2ccc(Br)cc12` [SMER28] the “normalised area under dose-response curve” value (from here on “normalised area”) [1] was 0.997 and the “normalised area” value [2] was 0.825.
For `C/C(=N\NC(=O)c1cccc(S(=O)(=O)N2CCOCC2)c1)c1cc(Cl)ccc1O` [SP2509], the “normalised area” value [1] was 0.86 and the “normalised area” value [2] was 0.824.
In the case of `O=C(Nc1cc(C(F)(F)F)ccc1N1CCCCC1)c1ccncc1` [SRPIN340], the “normalised area” value [1] is reported as 0.964 and the “normalised area” value [2] is reported as 0.905.
With `O=C(Nc1ccccc1-c1cn2c(CN3CCNCC3)csc2n1)c1cnc2ccccc2n1` [SRT1720 HCl] the “normalised area” value [1] was 0.865 and the “normalised area” value [2] was 0.812.
`CC(C)(C)c1ccc(S(=O)(=O)NCc2ccc(C(=O)Nc3cccnc3)cc2)cc1` [STF-31] was tested, and the “normalised area” value [1] was 0.864 and the “normalised area” value [2] was 0.865.
With `Cc1cc2c(C(=O)NC[C@H](C)c3ccccc3)c(O)c(O)cc2c(O)c1-c1c(C)cc2c(C(=O)NC[C@H](C)c3ccccc3)c(O)c(O)cc2c1O` [Sabutoclax] the “normalised area” value [1] was 0.822 and the “normalised area” value [2] was 0.909.
`CC(C(=O)Nc1cccc(/N=C/c2c(O)ccc3ccccc23)c1)c1ccccc1` (stereo unspecified) [Salermide] was tested, and the “normalised area” value [1] was 0.876 and the “normalised area” value [2] was 0.858.
With `CC(C)=CCC/C(C)=C/CC/C(C)=C/CSc1ccccc1C(=O)O` [Salirasib] the “normalised area” value [1] was 0.949 and the “normalised area” value [2] was 0.881.
For `CC(C)n1nc(-c2ccc3oc(N)nc3c2)c2c(N)ncnc21` [Sapanisertib (INK 128, MLN0128)], the “normalised area” value [1] was 0.541 and the “normalised area” value [2] was 0.389.
In the case of `CN1CCN(CCOc2cc(OC3CCOCC3)c3c(Nc4c(Cl)ccc5c4OCO5)ncnc3c2)CC1` [Saracatinib (AZD0530)], the “normalised area” value [1] is reported as 0.858 and the “normalised area” value [2] is reported as 0.609.
`NC(=O)C1CCCc2c1[nH]c1ccc(Cl)cc21` (stereo unspecified) [Selisistat (EX 527)] was tested, and the “normalised area” value [1] was 0.971 and the “normalised area” value [2] was 0.997.
For `Cc1cc(F)c(C(=O)Nc2cccc(-c3nncn3C(C)C)n2)cc1-n1cnc(C2CC2)c1` [Selonsertib (GS-4997)], the “normalised area” value [1] was 0.951 and the “normalised area” value [2] was 0.911.
For `Cn1cnc2c(F)c(Nc3ccc(Br)cc3Cl)c(C(=O)NOCCO)cc21` [Selumetinib (AZD6244)], the “normalised area” value [1] was 0.676 and the “normalised area” value [2] was 0.492.
In the case of `O=C(O)c1ccc2c(c1)nc(Nc1cccc(Cl)c1)c1ccncc12` [Silmitasertib (CX-4945)], the “normalised area” value [1] is reported as 0.924 and the “normalised area” value [2] is reported as 0.88.
With `O=C([O-])C(Cl)Cl.[Na+]` [Sodium dichloroacetate (DCA)] the “normalised area” value [1] was 0.996 and the “normalised area” value [2] was 0.951.
For `CNC(=O)c1cc(Oc2ccc(NC(=O)Nc3ccc(Cl)c(C(F)(F)F)c3)cc2)ccn1` [Sorafenib Tosylate], the “normalised area” value [1] was 0.947 and the “normalised area” value [2] was 0.953.
With `CN1CCN(c2nc(C3=C(c4c[nH]c5ccccc45)C(=O)NC3=O)c3ccccc3n2)CC1` [Sotrastaurin] the “normalised area” value [1] was 0.978 and the “normalised area” value [2] was 0.941.
`C=CC(=O)Nc1cccc(Nc2nc(Nc3ccc(OCCOC)cc3)ncc2F)c1` [Spebrutinib (CC-292, AVL-292)] was tested, and the “normalised area” value [1] was 0.709 and the “normalised area” value [2] was 0.888.
With `Nc1ccc(S(=O)(=O)NC(=O)c2ccccc2)cc1` [Sulfabenzamide] the “normalised area” value [1] was 0.926 and the “normalised area” value [2] was 0.747.
`CNC(=O)c1ccc2cc([C@@]3(O)CCn4cncc43)ccc2c1` [TAK-700 (Orteronel)] was tested, and the “normalised area” value [1] was 1 and the “normalised area” value [2] was 0.863.
With `CC(C)CC(CC(=O)NO)C(=O)N[C@@H](Cc1ccc2ccccc2c1)C(=O)N[C@@H](C)C(=O)NCCN` (stereo partly specified) [TAPI-1] the “normalised area” value [1] was 0.641 and the “normalised area” value [2] was 0.9.
`CNc1cc(-c2cccc(Cl)c2Cl)nc(N)n1` [TH287] was tested, and the “normalised area” value [1] was 0.896 and the “normalised area” value [2] was 0.901.
In the case of `Nc1nc(NC2CC2)cc(-c2cccc(Cl)c2Cl)n1` [TH588], the “normalised area” value [1] is reported as 0.914 and the “normalised area” value [2] is reported as 0.918.

Reference: the supplement of paper PMC8988213
